Laboratory results taken from PMC7460544, “Prenylated Flavonoids from the Roots of Tephrosia rhodesica” (Journal of Natural Products, 2020).

Tests used:
[1] = tested on: chloroquine-sensitive (3D7) strain of Plasmodium falciparum; assay: asexual P. falciparum imaging growth inhibition assay (antiplasmodial activity); format: cell-based; settings: for antiplasmodial activity in words: P. falciparum 3D7
[2] = tested on: HEK 293 mammalian cells; assay: cytotoxicity against HEK 293 mammalian cells (LD50); format: cell-based; settings: single experiment

Row | Compound | antiplasmodial activity in words [1] | LD50 (HEK-293) [2] | LD50 (HEK-293), given as % at 40 μM [2] | IC50 ([1]; Plasmodium falciparum, 3D7, read-out: IC50, μM (Pf3D7))
1 | CC(C)=CCC1(CC=C(C)C)C(=O)[C@@](O)(CC=C(C)C)C(=O)C2=C1O[C@H](c1ccccc1)C[C@H]2O [Rhodiflavan A (2), 4,6-dihydroxy-6,8,8-tris(3-methylbut-2-en-1-yl)-2-phenyl-2,3,4,8-tetrahydro-5H-chromene-5,7(6H)-dione] | moderate activities | – | – | –
2 | C=C(C)[C@H]1Cc2c(ccc3c2O[C@@H]2C(O)Oc4cc(OC)c(OC)cc4[C@@H]2C3=O)O1 (stereo partly drawn) [6-Hydroxyrotenone (15), 6-hydroxyrotenone] | moderate activities | 10.9 µM | – | –
3 | CC(C)=CCC1(CC=C(C)C)C(=O)C(=O)C2=C1O[C@H](c1ccccc1)C[C@H]2O (relative stereo) [Rhodiflavan C (4), (2S*,4R*)-4-hydroxy-7,7-bis(3-methylbut-2-en-1-yl)-2-phenyl-2,3,4,7-tetrahydrocyclopenta[b]pyran-5,6-dione] | moderate activities | – | 101% at 40 μM | –
4 | CC(C)=CCC1(CC=C(C)C)C(=O)[C@](O)(CC=C(C)C)C(=O)C2=C1O[C@H](c1ccccc1)C[C@H]2O [Rhodiflavan B (3), 4,6-dihydroxy-6,8,8-tris(3-methylbut-2-en-1-yl)-2-phenyl-2,3,4,8-tetrahydro-5H-chromene-5,7(6H)-dione] | moderate activities | – | 34% at 40 μM | –
5 | CCN(CC)CCCC(C)Nc1ccnc2cc(Cl)ccc12 (stereo not drawn) [Chloroquine, reference compound] | – | – | – | 0.0047 µM
6 | CC(C)=CCc1cc2c(cc1O)OC[C@@]1(O)c3cc4c(cc3O[C@@H]21)OCO4 [Rhodacarpin (5), (6aS,12aS)-2-(3-methylbut-2-en-1-yl)-6H-[1,3]dioxolo[4′,5′:5,6]benzofuro[3,2-c]chromene-3,6a(12aH)-diol] | moderate activities | – | 27% at 40 μM | –
7 | COc1cc(OC)c2c(c1CC=C(C)C)O[C@H](c1ccccc1)C[C@H]2OC [Quercetol B (9), quercetol B] | moderate activities | – | 87% at 40 μM | –
